ChEMBL document CHEMBL1201862, “PubChem BioAssay data set” (2004)
Activity calls are given as the source filed them.

Tests used:
[1] = tested on: Streptococcus sp. 'group A'; experiment: growth inhibition of control SK(-) GAS strain, dose response, counter-screen for streptokinase expression inhibitor project, luminescence, kanamycin, BacTiterGlo, confirmation (AID 1900); assay type: functional, organism-based
INS1 = experiment: beta cell apoptosis inhibitors, cytokine rescue, dose response, luminescence, retest (AID 449756); assay type: functional, cell-based; conditions: Rattus norvegicus;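 further: cell death triggered by IL-1 beta plus TNF-alpha plus IFN-gamma mixture; protective hits raise ATP signal compared with cytokine alone wells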
[2] = molecular target: T1, Short transient receptor potential channel 4 (Mus musculus, UniProt Q9QUQ5); experiment: mouse TRPC4 channel inhibitors, dose response, cell-based, HEK293 TRPC4/mu-opioid, Fluo-4 calcium (AID 434942); assay type: functional;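 further: potency of inhibitors blocking the TRPC4 calcium response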
T1 sequence (Q9QUQ5 whole entry): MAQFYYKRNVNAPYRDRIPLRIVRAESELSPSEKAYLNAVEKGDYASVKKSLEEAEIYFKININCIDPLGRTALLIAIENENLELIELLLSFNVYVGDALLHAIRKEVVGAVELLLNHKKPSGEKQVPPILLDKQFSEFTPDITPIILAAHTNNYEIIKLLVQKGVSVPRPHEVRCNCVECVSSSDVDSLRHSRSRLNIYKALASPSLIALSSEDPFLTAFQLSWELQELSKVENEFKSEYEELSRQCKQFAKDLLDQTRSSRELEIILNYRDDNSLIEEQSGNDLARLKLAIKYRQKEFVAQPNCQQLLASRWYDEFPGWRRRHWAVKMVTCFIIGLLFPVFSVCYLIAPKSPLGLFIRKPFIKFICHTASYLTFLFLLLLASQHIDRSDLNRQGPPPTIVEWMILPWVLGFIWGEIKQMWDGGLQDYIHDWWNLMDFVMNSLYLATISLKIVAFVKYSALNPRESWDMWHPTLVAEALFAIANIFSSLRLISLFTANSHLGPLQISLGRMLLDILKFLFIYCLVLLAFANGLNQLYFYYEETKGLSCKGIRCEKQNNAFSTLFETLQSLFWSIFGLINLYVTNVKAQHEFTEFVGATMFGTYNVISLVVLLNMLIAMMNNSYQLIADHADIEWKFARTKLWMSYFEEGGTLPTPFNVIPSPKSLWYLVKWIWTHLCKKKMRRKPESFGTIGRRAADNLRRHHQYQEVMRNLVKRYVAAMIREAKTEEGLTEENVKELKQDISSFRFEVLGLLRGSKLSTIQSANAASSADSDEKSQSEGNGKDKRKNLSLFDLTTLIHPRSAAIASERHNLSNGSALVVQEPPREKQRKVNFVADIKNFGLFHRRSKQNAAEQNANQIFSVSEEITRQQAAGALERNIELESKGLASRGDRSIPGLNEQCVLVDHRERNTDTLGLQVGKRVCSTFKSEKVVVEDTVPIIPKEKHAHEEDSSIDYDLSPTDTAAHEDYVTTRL

Nonstructural protein 1 = Nonstructural protein 1 (Influenza A virus, UniProt Q194T2); assay type: functional, Influenza A virus (A/California/07/2009(H1N1))
[3] = Artemis endonuclease inhibitor potency, dose response, biochemical, fluorescence intensity (AID 720701); assay type: functional;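 further: Artemis endonuclease enzyme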
Streptokinase A = molecular target: T2, Streptokinase A (Streptococcus pyogenes serotype M1, UniProt P10520); experiment: S. pyogenes streptokinase expression inhibitors, potency, dose response, plasminogen activation absorbance, OD405 (AID 1914); assay type: functional, Streptococcus pyogenes M1 GAS;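 further: secreted streptokinase activity via plasminogen activation per viability signal from cell pellet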
T2 sequence (P10520 whole entry): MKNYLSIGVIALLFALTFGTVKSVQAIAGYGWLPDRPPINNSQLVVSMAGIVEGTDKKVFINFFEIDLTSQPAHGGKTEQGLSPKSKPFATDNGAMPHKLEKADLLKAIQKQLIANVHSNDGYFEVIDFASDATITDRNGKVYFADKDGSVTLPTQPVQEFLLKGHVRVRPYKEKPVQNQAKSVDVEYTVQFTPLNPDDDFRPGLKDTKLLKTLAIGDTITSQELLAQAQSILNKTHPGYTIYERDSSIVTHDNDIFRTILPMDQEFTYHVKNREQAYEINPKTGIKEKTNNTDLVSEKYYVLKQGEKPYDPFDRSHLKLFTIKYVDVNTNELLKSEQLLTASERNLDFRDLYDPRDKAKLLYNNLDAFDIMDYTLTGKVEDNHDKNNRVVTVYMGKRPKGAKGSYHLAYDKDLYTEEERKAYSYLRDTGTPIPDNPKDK

Streptococcus = experiment: Group A Streptococcus viability loss, dose response, counter-screen for streptokinase expression inhibitor project, luminescence, BacTiterGlo (AID 1915); assay type: functional, organism-based;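 further: potency for reduction of bacterial viability or growth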
[4] = Shn3 3'UTR reporter inhibitors, dose response, cell-based, Clone20 osteoblasts, firefly luciferase, cherry-picked (AID 624132); assay type: functional;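 further: firefly luciferase luminescence from reporter carrying the Shn3 3'UTR in osteoblasts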
[5] = molecular target: Voltage-dependent T-type calcium channel subunit alpha-1H (Homo sapiens, UniProt O95180); assay type: functional;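 further: channel activity triggered by adding a high calcium stimulation buffer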
[6] = reduction of Shn3 3'UTR firefly luciferase signal, dose response, Schnurri-3 inhibitor project, cell-based, Clone20 osteoblasts, cherry-pick, set 2 (AID 720490); assay type: functional;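 further: actives lower the luminescence signal as inhibitors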
[7] = molecular target: 1-phosphatidylinositol 4,5-bisphosphate phosphodiesterase gamma-1 (Homo sapiens, UniProt P19174); experiment: Counterscreen for inhibitors of phospholipase C isozymes (PLC-B3): Fluorescence-based biochemical high throughput dose response assay to identify inhibitors of phospholipase C isozymes (PLC-gamma1).
[8] = molecular target: 1-phosphatidylinositol 4,5-bisphosphate phosphodiesterase beta-3 (Homo sapiens, UniProt Q01970); experiment: Fluorescence-based biochemical high throughput dose response assay to identify inhibitors of phospholipase C isozymes (PLC-B3).
[9] = A2780 ovarian cancer cell cytotoxicity, dose response, cytotoxicity control, plate reader, dry powder samples (AID 743046); assay type: functional, cell-based
[10] = IGROV1 ovarian cancer cell cytotoxicity, dose response, PAX8 inhibitor project, plate reader, dry powder samples (AID 743043); assay type: functional, cell-based; conditions: IGROV-1
Paired box protein Pax-8 = Paired box protein Pax-8 (Homo sapiens, UniProt Q06710); experiment: inhibitors of PAX8-driven TPO luciferase reporter, dose response, RMG-I cells, cherry-pick (AID 687027); assay type: functional, cell-based;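 further: luciferase reporter driven by Pax8 target thyroperoxidase promoter measured by SteadyGlo luminescence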
[11] = cytotoxicity in OVCAR8 ovarian cancer cells, dose response, PAX8 project, cell-based, plate reader, dry powder samples (AID 743197); assay type: functional; conditions: OVCAR-8
[12] = inhibitors of CMV-promoter luciferase reporter, dose response, counter-screen for Pax8 inhibitor project, cell-based, HEK293, luminescence, dry powder (AID 743020); assay type: functional
[13] = NIH:OVCAR-3 ovarian cancer cell cytotoxicity, dose response, PAX8 inhibitor project, plate reader, dry powder samples (AID 743044); assay type: functional, cell-based
[14] = Late stage counterscreen for inhibitors of Trypanosoma brucei methionyl tRNA synthetase (MetRS): Luminescence-based cell-based high throughput dose response assay to identify compounds that are cytotoxic to Jurkat human T lymphocyte cells.; assay type: functional

Sequence of Paired box protein Pax-8 (Q06710 whole entry): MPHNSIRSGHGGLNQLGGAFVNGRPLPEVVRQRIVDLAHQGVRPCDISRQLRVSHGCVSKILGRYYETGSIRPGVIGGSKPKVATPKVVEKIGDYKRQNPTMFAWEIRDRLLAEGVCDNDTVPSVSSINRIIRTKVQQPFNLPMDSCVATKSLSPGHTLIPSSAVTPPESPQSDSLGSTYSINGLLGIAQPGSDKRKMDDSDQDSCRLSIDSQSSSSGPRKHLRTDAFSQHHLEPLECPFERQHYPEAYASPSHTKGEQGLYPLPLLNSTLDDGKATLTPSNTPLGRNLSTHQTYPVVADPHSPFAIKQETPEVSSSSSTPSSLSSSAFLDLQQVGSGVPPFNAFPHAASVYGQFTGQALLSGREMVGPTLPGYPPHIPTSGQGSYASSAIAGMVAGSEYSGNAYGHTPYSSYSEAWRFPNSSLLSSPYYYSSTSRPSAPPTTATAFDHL
Sequence of Nonstructural protein 1 (Q194T2 whole entry): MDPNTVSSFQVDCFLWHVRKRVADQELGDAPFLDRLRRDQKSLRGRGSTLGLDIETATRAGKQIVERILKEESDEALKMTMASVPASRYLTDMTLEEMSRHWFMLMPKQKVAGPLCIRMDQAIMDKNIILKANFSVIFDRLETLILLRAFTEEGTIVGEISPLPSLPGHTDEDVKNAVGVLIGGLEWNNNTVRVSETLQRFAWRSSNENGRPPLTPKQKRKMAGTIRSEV
Sequence of 1-phosphatidylinositol 4,5-bisphosphate phosphodiesterase gamma-1 (P19174 whole entry): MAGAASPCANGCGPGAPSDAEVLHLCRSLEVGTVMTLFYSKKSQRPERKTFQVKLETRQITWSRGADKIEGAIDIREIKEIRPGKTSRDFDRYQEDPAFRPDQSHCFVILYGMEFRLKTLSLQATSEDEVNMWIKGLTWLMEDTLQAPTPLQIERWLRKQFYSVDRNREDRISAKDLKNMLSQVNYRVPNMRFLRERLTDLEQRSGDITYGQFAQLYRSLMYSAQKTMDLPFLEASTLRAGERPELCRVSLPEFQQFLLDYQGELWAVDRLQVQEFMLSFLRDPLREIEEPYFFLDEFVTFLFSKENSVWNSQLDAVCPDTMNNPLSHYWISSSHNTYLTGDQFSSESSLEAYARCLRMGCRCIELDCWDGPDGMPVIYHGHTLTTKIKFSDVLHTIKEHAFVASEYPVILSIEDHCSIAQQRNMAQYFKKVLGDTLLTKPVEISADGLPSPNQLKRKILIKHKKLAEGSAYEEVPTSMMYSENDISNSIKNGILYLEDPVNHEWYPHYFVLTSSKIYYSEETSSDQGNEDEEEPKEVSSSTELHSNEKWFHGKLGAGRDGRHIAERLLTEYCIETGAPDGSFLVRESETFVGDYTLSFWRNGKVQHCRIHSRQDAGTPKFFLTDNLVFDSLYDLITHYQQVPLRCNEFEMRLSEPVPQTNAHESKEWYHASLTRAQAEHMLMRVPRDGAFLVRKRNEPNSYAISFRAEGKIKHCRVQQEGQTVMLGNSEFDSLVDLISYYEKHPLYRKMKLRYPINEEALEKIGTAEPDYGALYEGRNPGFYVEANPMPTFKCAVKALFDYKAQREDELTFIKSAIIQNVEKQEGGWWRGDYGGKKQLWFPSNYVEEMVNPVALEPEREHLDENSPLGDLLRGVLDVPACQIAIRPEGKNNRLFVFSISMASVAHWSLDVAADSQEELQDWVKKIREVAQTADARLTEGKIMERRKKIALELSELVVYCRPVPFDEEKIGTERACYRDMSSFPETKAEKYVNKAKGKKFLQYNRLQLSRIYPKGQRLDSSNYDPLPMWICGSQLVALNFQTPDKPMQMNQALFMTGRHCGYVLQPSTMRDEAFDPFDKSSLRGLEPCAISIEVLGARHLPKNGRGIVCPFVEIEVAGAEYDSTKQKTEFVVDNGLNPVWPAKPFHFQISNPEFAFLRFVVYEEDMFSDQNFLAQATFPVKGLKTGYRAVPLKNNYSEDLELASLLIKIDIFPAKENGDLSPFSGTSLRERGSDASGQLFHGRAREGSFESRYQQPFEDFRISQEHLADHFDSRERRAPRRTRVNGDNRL
Sequence of 1-phosphatidylinositol 4,5-bisphosphate phosphodiesterase beta-3 (Q01970 whole entry): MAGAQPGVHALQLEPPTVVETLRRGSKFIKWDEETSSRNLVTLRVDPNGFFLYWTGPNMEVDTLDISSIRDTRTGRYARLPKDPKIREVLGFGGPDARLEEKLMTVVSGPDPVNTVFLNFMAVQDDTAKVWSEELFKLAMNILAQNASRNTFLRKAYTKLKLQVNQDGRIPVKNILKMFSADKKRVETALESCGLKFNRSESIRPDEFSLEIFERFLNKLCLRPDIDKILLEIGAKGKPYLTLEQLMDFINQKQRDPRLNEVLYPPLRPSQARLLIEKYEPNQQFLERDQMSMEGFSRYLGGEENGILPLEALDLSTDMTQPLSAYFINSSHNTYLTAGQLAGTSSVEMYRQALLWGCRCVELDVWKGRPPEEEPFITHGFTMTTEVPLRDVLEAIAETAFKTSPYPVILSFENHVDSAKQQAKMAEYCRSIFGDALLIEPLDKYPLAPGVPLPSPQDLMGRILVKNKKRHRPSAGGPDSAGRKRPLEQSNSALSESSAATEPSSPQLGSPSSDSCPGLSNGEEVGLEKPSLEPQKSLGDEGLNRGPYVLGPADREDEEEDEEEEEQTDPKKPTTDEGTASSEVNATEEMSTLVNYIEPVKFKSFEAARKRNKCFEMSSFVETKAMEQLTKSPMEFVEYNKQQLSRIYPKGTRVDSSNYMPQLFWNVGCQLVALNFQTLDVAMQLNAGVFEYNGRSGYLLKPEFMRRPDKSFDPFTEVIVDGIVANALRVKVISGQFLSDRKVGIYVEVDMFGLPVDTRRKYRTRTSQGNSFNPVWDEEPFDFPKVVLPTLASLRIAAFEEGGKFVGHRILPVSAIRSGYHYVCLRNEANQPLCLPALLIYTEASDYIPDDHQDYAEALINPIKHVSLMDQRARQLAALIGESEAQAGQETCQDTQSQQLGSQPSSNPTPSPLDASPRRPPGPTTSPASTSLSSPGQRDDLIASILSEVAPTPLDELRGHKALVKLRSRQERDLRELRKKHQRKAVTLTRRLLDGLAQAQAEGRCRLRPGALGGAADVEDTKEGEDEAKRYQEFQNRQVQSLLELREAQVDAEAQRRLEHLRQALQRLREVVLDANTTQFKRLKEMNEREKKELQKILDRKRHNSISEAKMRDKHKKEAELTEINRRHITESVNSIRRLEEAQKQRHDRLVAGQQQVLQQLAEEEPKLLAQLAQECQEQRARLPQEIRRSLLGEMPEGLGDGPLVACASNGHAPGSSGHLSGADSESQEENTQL

c1ccc(-c2nc(NCc3ccco3)c3ccccc3n2)nc1
EC50 [1]: 3.14 µM (active)
AC50 (INS1): 3.41 µM (active)
EC50 [2]: 0.335 µM (active)
IC50 (Nonstructural protein 1): 14.5 µM (active)
IC50 [3]: 8.96 µM (active)
EC50 (Streptokinase A): > 150 µM (not active)
EC50 (Streptococcus): 12.1 µM (active)

Cc1cccc(-c2noc(CN(C(=O)C(c3ccccc3)c3ccccc3)C(C)C)n2)c1
AC50 [4]: 6.27 µM (active)
EC50 [5]: 6.72 µM (active)
AC50 [6]: 12.3 µM (active)

CCCCN=C(S)NNC(=O)c1csc(C)c1
IC50 [7]: > 122 µM (inactive)
IC50 [8]: > 122 µM (inactive)

COc1ccc2c3c(n(C)c2c1)[C@H](CO)N(Cc1ccccc1)CC31CCN(S(=O)(=O)c2ccc(C)cc2)CC1
AC50 [9]: 17.4 µM (active)
AC50 [10]: 51.1 µM (active)
AC50 (Paired box protein Pax-8): 6.41 µM (active)
AC50 [11]: 13.2 µM (active)
AC50 [12]: 14.3 µM (active)
AC50 [13]: 17.8 µM (active)

C[C@H]1CN([C@@H](C)CO)C(=O)Cc2cc(NC(=O)Nc3ccc4c(c3)OCO4)ccc2O[C@@H]1CN(C)CC1CCCCC1
AC50 [9]: 22.2 µM (active)
AC50 (Paired box protein Pax-8): 31.2 µM (active)
AC50 [11]: 62.9 µM (active)

CCO[C@@H]1OC(C(=O)NCc2nc3ccccc3[nH]2)=C[C@H](c2ccc(Br)cc2)[C@H]1CCCO
IC50 [14]: 45.4 µM (inactive)
